Assay results from US20240270744A1 (Hoffmann-La Roche Inc., priority 2021, published 2024).

Legend:
Assay in all cases: Radioligand binding assay, competition for [3H]RO7239181, γ1-containing GABAA subtypes
[1] = biological target: human GABAA α1β2γ1 receptor (Homo sapiens (Human), UniProt P14867+Q8N1C3)
Experimental: (§1) The affinity of compounds at GABAA γ1 subunit-containing receptors was measured by competition for [^3H]RO7239181 (67.3 Ci/mmol; Roche) binding to membranes from HEK293F cells (ThermoFisher R79007) expressing human (transiently transfected) receptors of composition α5β2γ1, α2β2γ1, α1β2γ1.
(§2) Harvested pellets from HEK293F cells expressing the different GABAA receptor subtypes were resuspended in Mannitol Buffer pH 7.2-7.4 (Mannitol 0.29 M, Triethylamine 10 mM, Acetic acid 10 mM, EDTA 1 mM plus protease inhibitors (20 tablets Complete, Roche Diagnostics Cat. No. 05 056 489 001 per liter)), washed two times and then resuspended at 1:10 to 1:15 dilution in the same buffer. Cell disruption was performed by stirring the suspension in a Parr vessel #4637 at 435 psi for 15 minutes, and then the suspensions were centrifuged at 1000×g for 15 minutes at 4° C. (Beckman Avanti J-HC: rotor JS-4.2). The supernatant (S1) was transferred in a 21 Schott flask and the pellet (P1) was resuspended with Mannitol Buffer up to 175 ml. The resuspended pellet was transferred into a 250 ml Corning centrifugal beaker and centrifuged at 1500×g for 10 minutes at 4° C. (Beckman Avanti J-HC: rotor JS-4.2). The supernatant (S1) was then transferred in the 21 Schott flask and the pellet was discarded. The supernatants (S1) were centrifuged in 500 ml Beckman polypropylene centrifugal beaker at 15′000×g for 30 minutes at 4° C. (Beckman Avanti J-20 XP; rotor JLA-10.500). The pellet (P2) was resuspended with Mannitol Buffer 1:1 and frozen at −80° C. The supernatant (S2) was centrifuged in 100 ml Beckman polypropylene centrifugal tubes at 48000×g for 50 minutes at 4° C. (Beckman Avanti J-20 XP; rotor JA-18). The supernatant (S3) was discarded and the pellet (P3) was resuspended with 1:1 Mannitol Buffer. The P2 and P3 protein concentration was determined with the BIORAD Standard assay method with bovine serum albumin as standard and measured on the NANO-Drop 1000. The membrane suspension was aliquots (500 μl per tube) and stored at −80° C. until required.
(§3) Membrane homogenates were resuspended and polytronised (Polytron PT1200E Kinematica AG) in Potassium Phosphate 10 mM, KCl 100 mM binding buffer at pH 7.4 to a final assay concentration determined with a previous experiment.
(§4) Assays were incubated to equilibrium for 1 hour at 4° C. and then, membranes were filtered onto unifilter (96-well white microplate with bonded GF/C filters preincubated 20-50 minutes in 0.3% Polyethylenimine) with a Filtermate 196 harvester (Packard BioScience) and washed 4 times with cold Potassium Phosphate 10 mM pH 7.4, KCl 100 mM binding buffer. After anhydrousing, filter-retained radioactivity was detected by liquid scintillation counting. Ki values were calculated using Excel-Fit (Microsoft) and are the means of two determinations.

[2] = biological target: human GABAA α2β2γ1 receptor (Homo sapiens (Human), UniProt P47869+Q8N1C3); details: for LogSel: Log of the γ2/γ1 Ki ratio
Experimental: as §1, §2, §3, §4

[3] = biological target: human GABAA α5β2γ1 receptor (Homo sapiens (Human), UniProt P31644+Q8N1C3); details: Table 1; [3H]RO7239181 displacement, membranes from HEK293F cells, mean of two determinations
Experimental: as §1, with “α1β2γ1. For better protein expression of the α2 subunit-containing receptors, the 28 amino acid long signal peptide (Met1 to Ala28) of the human GABAA α2 subunit was substituted by the 31 amino acid long signal peptide (Met1 to Ser31) of human GABAA α5 subunit.” for “α1β2γ1.”
as §2, §3
as §4, with “Radioligand binding assays were carried out in a volume of 200 μL (96-well plates) which contained 100 μL of cell membranes, [3H]RO7239181 at a concentration of 1.5 nM (α5β2γ1) or 20-30 nM (α1β2γ1, α2β2γ1) and the test compound in the range of [0.3-10000]=10^−9 M. Nonspecific binding was defined by 10×10^−6 (α5β2γ1) and 30×10^−6 M RO7239181 and typically represented less than 5% (α5β2γ1) and less than 20% (β1β2γ1, α2β2γ1) of the total binding. Assays” for “Assays”
Representative test results, obtained by the above described assay measuring binding affinity to HEK293 cells expressing human (h) receptors, are shown in the Table 1.

[4] = Table 1, [3H]RO7239181 displacement, membranes from HEK293F cells, mean of two determinations
[5] = Ki h-GABAA α2β2γ1, Table 1, [3H]RO7239181 displacement, membranes from HEK293F cells, mean of two determinations
[6] = Ki h-GABAA α2β2γ1, Table 2, [3H]RO7239181 displacement
[7] = Table 1, Ki α1β3γ2 (nM)/Ki α2β2γ1 (nM)
[8] = Table 3, reference compounds comparison
[9] = Ki h-GABAA α2β2γ1, Table 3, reference compounds comparison

## Cc1nnc2n1-c1cnc(C(F)(F)F)c(Cl)c1C(c1c(F)cccc1Cl)=N[C@H]2C [Example 17, (7S)-11-chloro-9-(2-chloro-6-fluoro-phenyl)-3,7-dimethyl-12-(trifluoromethyl)-2,4,5,8,13-pentazatricyclo[8.4.0.02,6]tetradeca-1(10),3,5,8,11,13-hexaene]
[1]; [4]
  Ki: 34.4 nM
[2]; [5]
  Ki: 22.6 nM
[2]; [6]
  Ki: 21 nM
[2]; [7]
  γ2/γ1 Selectivity Ratio: 215
[2]; Table 1
  LogSel: 2.33
[3]
  Ki: 3.8 nM

## C[C@@H]1N=C(c2c(F)cccc2F)c2c(cnc(C(F)(F)F)c2Cl)-n2nc(C(=O)N3CC(C)(O)C3)nc21 [Example 10, [(7S)-11-chloro-9-(2,6-difluorophenyl)-7-methyl-12-(trifluoromethyl)-2,3,5,8,13-pentazatricyclo[8.4.0.02,6]tetradeca-1(10),3,5,8,11,13-hexaen-4-yl]-(3-hydroxy-3-methyl-azetidin-1-yl)methanone]
[1]; [4]
  Ki: 80.5 nM
[1]; [8]
  Ki: 80.5 nM
[2]; [5]
  Ki: 14.3 nM
[2]; [6]
  Ki: 14.3 nM
[2]; [9]
  Ki: 14.3 nM
[2]; [7]
  γ2/γ1 Selectivity Ratio: 321
[2]; Table 1
  LogSel: 2.51
[2]; Table 3, Ki α1β3γ2/Ki α2β2γ1
  γ2/γ1 Selectivity Ratio: 321
[2]; Table 3
  LogSel: 2.5
[3]
  Ki: 3 nM

## COC1CN(C(=O)c2nc3n(n2)-c2cnc(C(F)(F)F)c(Cl)c2C(c2c(F)cccc2F)=N[C@H]3C)C1 [Example 9, [(7S)-11-chloro-9-(2,6-difluorophenyl)-7-methyl-12-(trifluoromethyl)-2,3,5,8,13-pentazatricyclo[8.4.0.02,6]tetradeca-1(10),3,5,8,11,13-hexaen-4-yl]-(3-methoxyazetidin-1-yl)methanone]
[1]; [4]
  Ki: 45.8 nM
[2]; [5]
  Ki: 19.9 nM
[2]; [6]
  Ki: 19.9 nM
[2]; [7]
  γ2/γ1 Selectivity Ratio: 170
[2]; Table 1
  LogSel: 2.23
[3]
  Ki: 7.1 nM

## Cc1nnc2n1-c1cnc(C(F)(F)F)c(Cl)c1C(c1c(F)cccc1F)=N[C@H]2C [Example 4, (7S)-11-chloro-9-(2,6-difluorophenyl)-3,7-dimethyl-12-(trifluoromethyl)-2,4,5,8,13-pentazatricyclo[8.4.0.02,6]tetradeca-1(10),3,5,8,11,13-hexaene]
[1]; [4]
  Ki: 51.6 nM
[1]; [8]
  Ki: 51.6 nM
[2]; [5]
  Ki: 64.3 nM
[2]; [6]
  Ki: 64.3 nM
[2]; [9]
  Ki: 64.3 nM
[2]; [7]
  γ2/γ1 Selectivity Ratio: 113
[2]; Table 1
  LogSel: 2.05
[2]; Table 3, Ki α1β3γ2/Ki α2β2γ1
  γ2/γ1 Selectivity Ratio: 113
[2]; Table 3
  LogSel: 2.1
[3]
  Ki: 4.9 nM

## C[C@@H]1N=C(c2c(F)cccc2F)c2c(cnc(C(F)(F)F)c2Cl)-n2nc(C(=O)N3CCS(=O)(=O)CC3)nc21 [Example 11, [(7S)-11-chloro-9-(2,6-difluorophenyl)-7-methyl-12-(trifluoromethyl)-2,3,5,8,13-pentazatricyclo[8.4.0.02,6]tetradeca-1(10),3,5,8,11,13-hexaen-4-yl]-(1,1-dioxo-1,4-thiazinan-4-yl)methanone]
[1]; [4]
  Ki: 45.8 nM
[2]; [5]
  Ki: 9.6 nM
[2]; [6]
  Ki: 9.6 nM
[2]; [7]
  γ2/γ1 Selectivity Ratio: 818
[2]; Table 1
  LogSel: 2.91
[3]
  Ki: 4.6 nM

## C[C@@H]1N=C(c2c(F)cccc2F)c2c(cnc(C(F)(F)F)c2Cl)-n2nc(C(=O)NC[C@@H](C)O)nc21 [Example 16, (7S)-11-chloro-9-(2,6-difluorophenyl)-N-[(2R)-2-hydroxypropyl]-7-methyl-12-(trifluoromethyl)-2,3,5,8,13-pentazatricyclo[8.4.0.02,6]tetradeca-1(10),3,5,8,11,13-hexaene-4-carboxamide]
[1]; [4]
  Ki: 157 nM
[2]; [5]
  Ki: 39.8 nM
[2]; [6]
  Ki: 35.3 nM
[2]; [7]
  γ2/γ1 Selectivity Ratio: 238
[2]; Table 1
  LogSel: 2.38
[3]
  Ki: 4.1 nM

## C[C@@H]1N=C(c2c(F)cccc2F)c2c(cnc(C(F)(F)F)c2Cl)-n2cc(C(=O)NCCO)nc21 [Example 19, (7S)-11-chloro-9-(2,6-difluorophenyl)-N-(2-hydroxyethyl)-7-methyl-12-(trifluoromethyl)-2,5,8,13-tetrazatricyclo[8.4.0.02,6]tetradeca-1(10),3,5,8,11,13-hexaene-4-carboxamide]
[1]; [4]
  Ki: 48.9 nM
[2]; [5]
  Ki: 21.2 nM
[2]; [6]
  Ki: 23.2 nM
[2]; [7]
  γ2/γ1 Selectivity Ratio: 241
[2]; Table 1
  LogSel: 2.38
[3]
  Ki: 3.8 nM

## C[C@@H]1N=C(c2c(F)cccc2F)c2c(cnc(C(F)(F)F)c2Cl)-n2nc(C(=O)N3CC(O)C3)nc21 [Example 8, [(7S)-11-chloro-9-(2,6-difluorophenyl)-7-methyl-12-(trifluoromethyl)-2,3,5,8,13-pentazatricyclo[8.4.0.02,6]tetradeca-1(10),3,5,8,11,13-hexaen-4-yl]-(3-hydroxyazetidin-1-yl)methanone]
[1]; [4]
  Ki: 48.8 nM
[2]; [5]
  Ki: 14.6 nM
[2]; [6]
  Ki: 14.6 nM
[2]; [7]
  γ2/γ1 Selectivity Ratio: 255
[2]; Table 1
  LogSel: 2.41
[3]
  Ki: 2.5 nM
